Tests used:
[1] = In vivo mice tolerability assessment; conditions: female CD-1 mice, single intravenous 1mg/kg dose, Mean
Protocol: All animal procedures were performed in accordance with the European Union directive 86/609/EEC. Experiments were performed under individual permit and in accredited animal care facilities.
Mouse tolerability experiments were performed with selected compounds of the disclosure. Female CD-1 mice (n=5 mice per group) were treated with a single intravenous 1mg/kg dose of compound. Vehicle was PBS pH 6.0. Mice were carefully monitored for mortality, external clinical findings, weight loss, behavior and apparent signs of toxicity over the course of 21 days.

340 protein kinases = assay: Kinase screening assay (radiometric 33PanQinase ActivityAssay); assay type: biochemical, human; conditions: final compound concentration of 10 µM; most inhibited kinases belong to CMGC family, particularly CDK; 23 out of the 30 most inhibited were CDK/Cyclin complexes
Protocol: Compound 2384 according to the disclosure was subjected to kinase screening assays (performed at Reaction Biology, Germany). The screening assay was performed at a final compound concentration of 10 µM. A radiometric protein kinase assay (33PanQinase® ActivityAssay) was used for measuring the kinase activity of 340 protein kinases. All kinase assays were performed in 96-well FlashPlates™ from Perkin Elmer (Boston, MA, USA) in a 50 µL reaction volume. […] All PKC assays (except the PKC-mu and the PKC-nu assay) additionally contained 1 mM CaCl2, 4 mM EDTA, 5 µg/ml Phosphatidylserine and 1 µg/ml 1,2-Dioleyl-glycerol. The CAMK1D, CAMK2A, CAMK2B, CAMK2D, CAMK2G, CAMK4, CAMKK1, CAMKK2, DAPK2, EEF2K, MYLK, MYLK2 and MYLK3 assays additionally contained 1 µg/ml Calmodulin and 0.5 mM CaCl2. The PRKG1 and PRKG2 assays additionally contained 1 µM cGMP. The DNA-PK assay additionally contained 2.5 µg/ml DNA. The protein kinase reaction cocktails were incubated at 30°C for 60 minutes. The reaction was stopped with 50 µl of 2 % (v/v) H3PO4, plates were aspirated and washed two times with 200 µL 0.9 % (w/v) NaCl. Incorporation of 33Pi (counting of "cpm") was determined with a microplate scintillation counter (Microbeta, Wallac). All protein kinase assays were performed with a BeckmanCoulter Biomek 2000/SL robotic system. […]

CycK = molecular target: T1, CycK (Homo sapiens, UniProt O75909); assay: CycK protein quantification by Western Blot in JIMT-1 cells; assay type: cell-based
T1 construct: endogenous in cells; host or cells: JIMT-1
Protocol: 1×10^6 JIMT-1 cells were plated in 3mL of DMEM/FBS 90:10 (v/v) in 6-well plates and incubated overnight. Cells were treated with the compound 2384 of the invention with or without the proteasome inhibitor MG-132 (MedChemExpress, Cat HY-13259) for 2h. Cells were harvested, and protein were extracted using complete RIPA buffer (RIPA buffer, 1 mM DTT, 1M NaF, 100 mM sodium orthovanadate, phosphatase inhibitor buffer and protease inhibitors) for 1 hour on ice. Lysate were centrifuged 15min at 12 000g at 4°C. and proteins were mixed with 4x Laemmli Sample Buffer (Bio-Rad), heated at 95 °C for 5 mins and separated by SDS PAGE (PROTEAN TGX Stain-Free Gels, Bio-Rad). Proteins were then transferred onto PVDF membrane (iBlot®2 PVDF stacks, Invitrogen) using the iBlot2 device (Invitrogen) and blocked with TBS buffer (Intercept® Blocking Buffer, LI-COR Biosciences). Primary antibodies were incubated overnight at 4°C and secondary antibodies (IRDye Infrared Dyes from LI-COR Biosciences) 1 hour at room temperature. Used primary antibody were: anti-CycK (cat#A301-939A, Bethyl Laboratories, dil. 1:1000) and anti-β-actin (cat#A5441, Sigma-Aldrich, dil. 1:5000). Membranes were scanned using a c500 Imaging System (Azure Biosystems) and densitometric quantification were performed using imaged software. Protein levels were normalized against β-actin.

JIMT-1 cells = assay: Cell cycle arrest assessment (propidium iodide, flow cytometry); assay type: cell-based, human; conditions: 24h, 2, 5, 10, and 50nM
Protocol: 1×10^6 JIMT-1 cells were plated in 3mL of DMEM/FBS 90:10 (v/v) in 6-well plates and incubated overnight. Cells were treated with the compound 2384 of the invention or with CR8 for 24h. Cells were then harvested and washed three times with PBS. Cells were suspended into 300µL of propidium iodide working solution (0.05mg/mL) and incubated for 45 minutes at 4°C in the dark. Analysis was performed using a BD Fortessa flow cytometer controlled by BD FACSDiva software (BD Biosciences) and data were analyzed using FlowJo software (BD Bioscience).

T1 sequence (O75909 whole entry): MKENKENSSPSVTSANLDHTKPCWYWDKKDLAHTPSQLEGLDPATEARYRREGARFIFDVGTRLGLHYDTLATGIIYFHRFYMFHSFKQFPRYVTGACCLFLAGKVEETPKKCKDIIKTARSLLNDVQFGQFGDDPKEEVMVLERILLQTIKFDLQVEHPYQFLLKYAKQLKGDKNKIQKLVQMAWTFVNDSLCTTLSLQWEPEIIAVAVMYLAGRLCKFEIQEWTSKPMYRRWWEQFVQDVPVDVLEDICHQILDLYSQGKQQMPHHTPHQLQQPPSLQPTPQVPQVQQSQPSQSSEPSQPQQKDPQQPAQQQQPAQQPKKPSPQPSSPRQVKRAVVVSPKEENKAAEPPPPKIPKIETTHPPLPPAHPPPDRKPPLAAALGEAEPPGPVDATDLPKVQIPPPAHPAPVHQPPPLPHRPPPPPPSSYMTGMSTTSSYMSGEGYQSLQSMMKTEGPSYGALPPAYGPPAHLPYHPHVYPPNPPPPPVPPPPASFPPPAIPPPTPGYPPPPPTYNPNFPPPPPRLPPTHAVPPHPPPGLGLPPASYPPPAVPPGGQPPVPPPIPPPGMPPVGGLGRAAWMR
T1 sequence (Q9NYV4 whole entry partner): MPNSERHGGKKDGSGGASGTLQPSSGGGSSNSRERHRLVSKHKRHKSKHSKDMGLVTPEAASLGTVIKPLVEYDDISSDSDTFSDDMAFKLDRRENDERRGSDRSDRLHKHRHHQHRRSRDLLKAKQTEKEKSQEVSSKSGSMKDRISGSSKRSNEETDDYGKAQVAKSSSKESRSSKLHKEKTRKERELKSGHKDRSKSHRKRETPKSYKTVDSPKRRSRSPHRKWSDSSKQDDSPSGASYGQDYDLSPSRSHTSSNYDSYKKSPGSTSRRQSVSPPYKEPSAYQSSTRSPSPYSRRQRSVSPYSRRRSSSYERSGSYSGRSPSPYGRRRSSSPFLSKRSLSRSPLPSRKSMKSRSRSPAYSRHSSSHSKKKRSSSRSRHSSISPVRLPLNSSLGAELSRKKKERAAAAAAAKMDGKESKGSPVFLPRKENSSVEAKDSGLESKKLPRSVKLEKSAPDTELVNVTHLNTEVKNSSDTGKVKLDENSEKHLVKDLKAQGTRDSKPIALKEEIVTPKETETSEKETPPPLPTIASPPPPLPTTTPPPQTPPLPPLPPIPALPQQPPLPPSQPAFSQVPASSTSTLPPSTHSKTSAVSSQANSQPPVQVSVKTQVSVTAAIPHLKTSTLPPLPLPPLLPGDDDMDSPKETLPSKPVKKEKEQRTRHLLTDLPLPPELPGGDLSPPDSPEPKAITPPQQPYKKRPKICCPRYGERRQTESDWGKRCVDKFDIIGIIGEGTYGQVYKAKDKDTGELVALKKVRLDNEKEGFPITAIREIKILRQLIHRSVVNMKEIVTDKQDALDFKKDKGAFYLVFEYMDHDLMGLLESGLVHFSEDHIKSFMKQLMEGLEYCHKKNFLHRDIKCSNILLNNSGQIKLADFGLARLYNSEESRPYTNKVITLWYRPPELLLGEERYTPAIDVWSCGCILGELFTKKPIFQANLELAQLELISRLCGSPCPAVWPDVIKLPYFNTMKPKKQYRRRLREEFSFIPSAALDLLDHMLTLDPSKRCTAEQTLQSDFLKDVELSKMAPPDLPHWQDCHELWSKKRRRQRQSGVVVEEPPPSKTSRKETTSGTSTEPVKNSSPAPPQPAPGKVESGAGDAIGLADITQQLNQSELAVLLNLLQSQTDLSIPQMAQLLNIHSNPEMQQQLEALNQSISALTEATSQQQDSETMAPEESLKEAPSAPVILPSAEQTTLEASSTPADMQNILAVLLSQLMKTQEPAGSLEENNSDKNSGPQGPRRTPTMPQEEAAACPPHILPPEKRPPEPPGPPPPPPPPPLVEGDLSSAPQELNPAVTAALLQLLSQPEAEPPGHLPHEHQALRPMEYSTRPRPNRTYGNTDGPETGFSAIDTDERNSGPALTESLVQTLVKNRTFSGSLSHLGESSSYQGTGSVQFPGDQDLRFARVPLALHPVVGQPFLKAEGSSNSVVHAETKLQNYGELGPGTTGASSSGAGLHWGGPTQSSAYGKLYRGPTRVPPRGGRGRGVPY
T1 sequence (Q16531 whole entry partner): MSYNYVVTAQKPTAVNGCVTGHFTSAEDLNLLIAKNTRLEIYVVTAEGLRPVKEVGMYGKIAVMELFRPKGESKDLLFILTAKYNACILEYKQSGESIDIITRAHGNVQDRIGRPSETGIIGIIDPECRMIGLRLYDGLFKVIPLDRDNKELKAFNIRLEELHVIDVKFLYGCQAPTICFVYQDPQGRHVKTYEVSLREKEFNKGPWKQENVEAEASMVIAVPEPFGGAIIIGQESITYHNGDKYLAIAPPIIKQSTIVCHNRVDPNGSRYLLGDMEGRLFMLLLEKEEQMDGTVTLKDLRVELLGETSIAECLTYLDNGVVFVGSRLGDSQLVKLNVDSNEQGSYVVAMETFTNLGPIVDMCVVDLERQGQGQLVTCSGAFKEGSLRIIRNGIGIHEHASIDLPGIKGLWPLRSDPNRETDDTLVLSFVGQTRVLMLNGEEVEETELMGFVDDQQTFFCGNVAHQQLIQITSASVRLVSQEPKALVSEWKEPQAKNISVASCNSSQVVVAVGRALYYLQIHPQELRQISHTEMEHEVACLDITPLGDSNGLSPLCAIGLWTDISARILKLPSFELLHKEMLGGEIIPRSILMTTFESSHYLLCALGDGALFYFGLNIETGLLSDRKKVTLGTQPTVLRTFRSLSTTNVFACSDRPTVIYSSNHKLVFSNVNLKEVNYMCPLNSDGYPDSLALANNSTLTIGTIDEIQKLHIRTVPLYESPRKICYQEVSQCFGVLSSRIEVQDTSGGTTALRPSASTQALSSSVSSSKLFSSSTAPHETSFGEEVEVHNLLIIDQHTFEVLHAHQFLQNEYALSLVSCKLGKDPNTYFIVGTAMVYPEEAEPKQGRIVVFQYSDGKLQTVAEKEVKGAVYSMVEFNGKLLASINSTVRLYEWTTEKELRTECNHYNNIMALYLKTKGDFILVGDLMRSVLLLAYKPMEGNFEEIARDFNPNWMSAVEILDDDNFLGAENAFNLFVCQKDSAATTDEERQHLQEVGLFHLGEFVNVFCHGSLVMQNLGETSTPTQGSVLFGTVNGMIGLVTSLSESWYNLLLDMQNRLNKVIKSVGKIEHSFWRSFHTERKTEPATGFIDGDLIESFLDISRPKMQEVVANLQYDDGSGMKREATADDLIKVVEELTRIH

N[C@H]1CC[C@H](Nc2nc(NCc3ccc(-c4ccccn4)cc3)n3ncc(Br)c3n2)CC1 [Compound 2384]
average weight change (% initial weight) ([1]; Study Day 1): 0.0 % initial weight
average weight change (% initial weight) ([1]; Study Day 2): -2.5 % initial weight
average weight change (% initial weight) ([1]; Study Day 3): -7.1 % initial weight
average weight change (% initial weight) ([1]; Study Day 4): -14.6 % initial weight
average weight change (% initial weight) ([1]; Study Day 5): -15.2 % initial weight
average weight change (% initial weight) ([1]; Study Day 6): -14.9 % initial weight
average weight change (% initial weight) ([1]; Study Day 7): -12.4 % initial weight
average weight change (% initial weight) ([1]; Study Day 8): -9.2 % initial weight
average weight change (% initial weight) ([1]; Study Day 9): -7.3 % initial weight
average weight change (% initial weight) ([1]; Study Day 10): -1.9 % initial weight
average weight change (% initial weight) ([1]; Study Day 11): -0.7 % initial weight
average weight change (% initial weight) ([1]; Study Day 12): 4.1 % initial weight
average weight change (% initial weight) ([1]; Study Day 13): 1.9 % initial weight
average weight change (% initial weight) ([1]; Study Day 14): -1.8 % initial weight
average weight change (% initial weight) ([1]; Study Day 15): -3.4 % initial weight
average weight change (% initial weight) ([1]; Study Day 16): -4.1 % initial weight
average weight change (% initial weight) ([1]; Study Day 17): -1.6 % initial weight
average weight change (% initial weight) ([1]; Study Day 18): -0.5 % initial weight
average weight change (% initial weight) ([1]; Study Day 19): 0.7 % initial weight
average weight change (% initial weight) ([1]; Study Day 20): 2.6 % initial weight
average weight change (% initial weight) ([1]; Study Day 21): 2.0 % initial weight
inhibition of most inhibited kinases (340 protein kinases): more than 90%
CycK protein content (CycK; 1µM final concentration, 2h): decreased CycK protein content
minimum effective dose for CycK degradation, times lower than that of CR8 (CycK; 2h treatment): approximately 10 times
concentration inducing complete CycK degradation (CycK; 2h treatment, decreasing doses): 10 nM
cell cycle analysis (propidium iodide) (JIMT-1 cells): arrest in the G2/M phase

— patent EP4512806A1, “MOLECULAR GLUE DEGRADERS AND USES THEREOF” (Mablink Bioscience, priority 2023, dated 2025)
